pIC50: −log10 of the molar value. Where a SMILES comes first, the peptide text is derived from it.

For the first assay, the target named is HLA-A*0301 (Homo sapiens, UniProt P04439). Briefly: biochemical. It is filed as binding. The settings on record: allele A*0301; cell-free competition, fluorescence polarization at 72 hours; Non-binder = no dose-dependent inhibition; read-out: IC50. An outline of the steps:
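Cell-free competition assay: HLA heat-treated 53°C for 15 min to strip endogenous peptides, then mixed with fluorescent high-affinity control peptide and test peptides for 72 h to equilibrium. Displacement read by fluorescence polarization as percent inhibition; IC50 derived from a concentration range.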
(In general: Polarisation of emitted light reports the rotation of a fluorescent probe.)
On to `CC[C@H](C)[C@H](NC(=O)[C@H](Cc1ccccc1)NC(=O)[C@@H](NC(=O)[C@H](Cc1ccccc1)NC(=O)[C@@H](NC(=O)[C@@H](N)CCCCN)[C@@H](C)CC)[C@@H](C)O)C(=O)N[C@@H](CCC(=O)O)C(=O)N[C@@H](CC(N)=O)C(=O)N[C@@H](CCCCN)C(=O)O` [EBA175_0058] (H-KIFTFIENK-OH), for which the pIC50 was 6.33.
Still for that read-out and setting: as for `CC[C@H](C)[C@H](N)C(=O)N[C@@H](CC(C)C)C(=O)N[C@@H](CC(N)=O)C(=O)N[C@@H](CC(N)=O)C(=O)N[C@@H](CO)C(=O)N[C@@H](CCCCN)C(=O)N[C@@H](Cc1ccccc1)C(=O)N[C@@H](CC(N)=O)C(=O)N[C@@H](CCCCN)C(=O)O` [EBA175_0069] (H-ILNNSKFNK-OH), the figure is 6.38; as for `CC[C@H](C)[C@H](NC(=O)[C@H](Cc1c[nH]c2ccccc12)NC(=O)[C@H](CCC(=O)O)NC(=O)[C@H](CCCCN)NC(=O)[C@H](Cc1ccc(O)cc1)NC(=O)[C@H](CO)NC(=O)[C@@H](N)CC(N)=O)C(=O)N[C@@H](CO)C(=O)N[C@@H](CCCCN)C(=O)N[C@@H](CCCCN)C(=O)O` [EBA175_0667] (H-NSYKEWISKK-OH), 5.13.
The same measure, in the same setting: the figure for `CC[C@H](C)[C@H](NC(=O)[C@H](CC(=O)O)NC(=O)[C@@H](NC(=O)[C@H](Cc1c[nH]cn1)NC(=O)[C@H](CO)NC(=O)[C@H](CC(C)C)NC(=O)[C@@H](N)CCCNC(=N)N)[C@@H](C)O)C(=O)N[C@@H](Cc1c[nH]cn1)C(=O)N[C@@H](CCCCN)C(=O)O` [EBA175_1214] (H-RLSHTDIHK-OH) is 5.76.

The assay is the same for the next values; noted with them: allele A*0301; fluorescence polarization competition; read-out: IC50 (nM), in vitro HLA binding affinity.
As to `CC[C@H](C)[C@H](NC(=O)[C@H](CO)NC(=O)[C@H](CC(N)=O)NC(=O)[C@H](Cc1ccc(O)cc1)NC(=O)[C@H](CO)NC(=O)[C@H](CC(C)C)NC(=O)[C@@H](N)Cc1c[nH]cn1)C(=O)N[C@@H](Cc1ccc(O)cc1)C(=O)N[C@@H](Cc1c[nH]cn1)C(=O)N[C@@H](CCCCN)C(=O)O` [RH5_187] (H-HLSYNSIYHK-OH), the IC50 came to 44200 nM.
The same measure, in the same setting: as for `CC[C@H](C)[C@H](NC(=O)[C@H](CO)NC(=O)[C@H](CC(N)=O)NC(=O)[C@H](Cc1ccc(O)cc1)NC(=O)[C@H](CO)NC(=O)[C@@H](N)CC(C)C)C(=O)N[C@@H](Cc1ccc(O)cc1)C(=O)N[C@@H](Cc1c[nH]cn1)C(=O)N[C@@H](CCCCN)C(=O)O` [RH5_188] (H-LSYNSIYHK-OH), the figure is 3070 nM; as for `CC[C@H](C)[C@H](NC(=O)[C@H](CC(=O)O)NC(=O)[C@H](CC(N)=O)NC(=O)[C@H](CS)NC(=O)[C@H](CCCCN)NC(=O)[C@H](CO)NC(=O)[C@H](CCCCN)NC(=O)[C@@H](NC(=O)[C@@H](N)CCCCN)C(C)C)C(=O)N[C@@H](CCCCN)C(=O)O` [RH5_219] (H-KVKSKCNDIK-OH), 39300 nM.
Same read-out and setting: as for `CC(C)C[C@H](NC(=O)[C@H](CC(N)=O)NC(=O)[C@@H](NC(=O)[C@H](CC(C)C)NC(=O)[C@H](CC(C)C)NC(=O)[C@@H](N)CC(C)C)[C@@H](C)O)C(=O)N[C@@H](CC(N)=O)C(=O)N[C@@H](CCCCN)C(=O)N[C@@H](CCCCN)C(=O)O` [RH5_392] (H-LLLTNLNKK-OH), the figure is 14100 nM.
Regarding `CC[C@H](C)[C@H](NC(=O)[C@H](Cc1ccc(O)cc1)NC(=O)[C@@H](NC(=O)[C@H](Cc1ccc(O)cc1)NC(=O)[C@H](CO)NC(=O)CN)[C@@H](C)CC)C(=O)N[C@@H](CC(=O)O)C(=O)N[C@H](C(=O)N[C@H](C(=O)N[C@@H](CCCCN)C(=O)O)[C@@H](C)CC)[C@@H](C)O` [RH5_402] (H-GSYIYIDTIK-OH), the IC50 was determined as 70800 nM.
On the same count and under the same terms, the figure for `CC[C@H](C)[C@H](NC(=O)[C@H](CCCCN)NC(=O)[C@@H](NC(=O)[C@@H](N)Cc1c[nH]cn1)[C@@H](C)O)C(=O)N[C@H](C(=O)N[C@@H](CC(N)=O)C(=O)N[C@@H](CC(=O)O)C(=O)N[C@@H](CCCCN)C(=O)N[C@H](C(=O)N[C@@H](CCCCN)C(=O)O)[C@@H](C)O)[C@@H](C)CC` [RH5_427] (H-HTKIINDKTK-OH) is 73000 nM.

A word on the pIC50: it is the IC50 on a negative log10 scale, so that one unit is a factor of ten. As usually defined, the IC50 is the concentration needed to halve the response being measured.

The values above are taken from publication PMC8294059, “Identification and Immune Assessment of T Cell Epitopes in Five Plasmodium falciparum Blood Stage Antigens to Facilitate Vaccine Candidate Selection and Optimization” (Frontiers in Immunology, 2021).
